Assay results published in ChEMBL document CHEMBL1158872, “Four new bioactive polybrominated diphenyl ethers of the sponge Dysidea herbacea from West Sumatra, Indonesia” (J Nat Prod, 1997).
Values after ≈ are worked out from the molar mass of the structure shown. Active and inactive are the calls of the source. The calls are words filed in the database; no cut-off is given here.

Assays:
Cladosporium cucumerinum [1] = assay: Antimicrobial activity against Cladosporium cucumerinum at 50 nmol after 2 days by TLC based bioautography method; assay type: functional
Cladosporium cucumerinum [2] = assay: Antimicrobial activity against Cladosporium cucumerinum at 25 nmol after 2 days by TLC based bioautography method; assay type: functional
[3] = Toxicity against Artemia salina; assay type: organism-based; conditions: in vivo
Escherichia coli = assay: Antimicrobial activity against Escherichia coli; assay type: functional, organism-based

SMILES | inhibition zone (IZ) (Cladosporium cucumerinum [1]) [mm] | inhibition zone (IZ) (Cladosporium cucumerinum [2]) [mm] | LC50 [3] [µg/mL] | Activity (Escherichia coli)
Oc1c(Br)c(Br)c(Br)c(Br)c1Oc1ccc(Br)cc1Br | 8 | 5 | 0.94 (≈ 1.43 µM) | inactive
Oc1c(Br)cc(Br)cc1Oc1ccc(Br)cc1Br | 3.5 | 1.5 | 8.66 (≈ 17.3 µM) | inactive
Oc1c(Br)c(Br)c(Br)c(Br)c1Oc1ccccc1Br | 14 | 7 | 0.96 (≈ 1.65 µM) | inactive
COc1c(Br)cc(Br)c(Br)c1Oc1ccccc1Br |  |  | 26.2 (≈ 50.9 µM) | inactive
Oc1cc(Br)c(Br)c(Br)c1Oc1ccccc1Br | 13 | 8 | 3.3 (≈ 6.58 µM) | inactive
